In patent publication US5288709A, “Erythromycin derivatives” (priority 1991, dated 1994):
In brackets after ≈: the same amount, converted by molar mass. Like-named read-outs stand apart in the source and are kept apart here.

Tests used:
[1] = system: Escherichia coli JUHL; assay: In-vitro antimicrobial activity primary screen (agar dilution MIC); format: cell-based
In short: (§1)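 Each strain was applied with a Steers replicator block to agar plates containing graded test compound, using 1:100 inocula, or 1:10 where growth was slow, as with Streptococcus. Plates were incubated for 20-24 hours at 35-37° C. A reference antibiotic of the same class was run alongside.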

[2] = system: Pseudomonas aeruginosa K799/WT; assay: as above; format: cell-based; conditions: Pseudomonas aeruginosa K799/WT; BHI agar, 20-24 h; read-out: MIC
In short: as §1

[3] = system: Escherichia coli H560; assay: as above; format: cell-based; conditions: Escherichia coli H560; BHI agar, 20-24 h; read-out: MIC
In short: as §1

[4] = system: Acinetobacter SP CMX 669; assay: as above; format: cell-based
In short: as §1

[5] = system: Pseudomonas aeruginosa BMH10; assay: as above; format: cell-based; conditions: Pseudomonas aeruginosa, BMH10, 24 h, BHI agar, 20-24 h
In short: as §1

[6] = system: Enterobacter aerogenes ATCC 13048; assay: as above; format: cell-based; conditions: Klebsiella aerogenes, Enterobacter aerogenes ATCC 13048, BHI agar, 20-24 h
In short: as §1

[7] = system: Pseudomonas aeruginosa K799/61; assay: as above; format: cell-based; conditions: Pseudomonas aeruginosa K799/61; BHI agar, 20-24 h; read-out: MIC
In short: as §1

[8] = system: Pseudomonas aeruginosa A5007; assay: as above; format: cell-based; conditions: Pseudomonas aeruginosa A5007; BHI agar, 20-24 h; read-out: MIC
In short: as §1

[9] = system: Escherichia coli SS; assay: as above; format: cell-based; conditions: BHI agar, 20-24 h, read-out: MIC
In short: as §1

[10] = system: Staphylococcus aureus 45; assay: as above; format: cell-based; conditions: BHI agar, 20-24 h, read-out: MIC
In short: as §1

[11] = system: Enterococcus faecium ATCC 8043; assay: as above; format: cell-based
In short: as §1

[12] = system: Streptococcus bovis A5169; assay: as above; format: cell-based; conditions: Streptococcus equinus, BHI agar, 20-24 h, read-out: MIC
In short: as §1

[13] = system: Streptococcus pyrogenes EES61; assay: as above; format: cell-based; conditions: BHI agar, 20-24 h, read-out: MIC
In short: as §1

[14] = system: Escherichia coli DC-2; assay: as above; format: cell-based; conditions: DC2; Escherichia coli DC-2; BHI agar, 20-24 h; read-out: MIC
In short: as §1

[15] = system: Streptococcus pyrogenes 2548 INDUC; assay: as above; format: cell-based; conditions: BHI agar, 20-24 h, read-out: MIC
In short: as §1

[16] = system: Providencia stuartii CMX 640; assay: as above; format: cell-based; conditions: CMX640; Providencia stuartii CMX 640; BHI agar, 20-24 h; read-out: MIC
In short: as §1

[17] = system: Pseudomonas cepacia 2961; assay: as above; format: cell-based; conditions: Burkholderia cepacia, BHI agar, 20-24 h, read-out: MIC
In short: as §1

[18] = system: Staphylococcus aureus 45 RAR2; assay: as above; format: cell-based; conditions: Staphylococcus aureus, 45RAR2, 24 h, BHI agar, 20-24 h
In short: as §1

[19] = system: Staphylococcus epidermidis 3519; assay: as above; format: cell-based; conditions: BHI agar, 20-24 h, read-out: MIC
In short: as §1

[20] = system: Staphylococcus aureus ATCC 6538P; assay: as above; format: cell-based; conditions: Staphylococcus aureus, ATCC6538P, 24 h, BHI agar, 20-24 h
In short: as §1

[21] = system: Staphylococcus aureus A5177; assay: as above; format: cell-based
In short: as §1

[22] = system: Micrococcus luteus ATCC 9341; assay: as above; format: cell-based; conditions: ATCC9341, BHI agar, 20-24 h, read-out: MIC
In short: as §1

[23] = system: Streptococcus agalactiae CMX 508; assay: as above; format: cell-based; conditions: CMX508, BHI agar, 20-24 h, read-out: MIC
In short: as §1

[24] = system: Micrococcus luteus ATCC 4698; assay: as above; format: cell-based; conditions: ATCC4698, BHI agar, 20-24 h, read-out: MIC
In short: as §1

[25] = system: Staphylococcus aureus CMX 686B; assay: as above; format: cell-based; conditions: CMX686B, BHI agar, 20-24 h, read-out: MIC
In short: (§2)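 Agar dilution in Brain Heart Infusion agar with twelve successive compound dilutions; plates inoculated with 1:100 diluted cultures by replicator and incubated 20-24 h at 35-37 °C. MIC is the lowest concentration giving no growth, slight haze or sparse isolated colonies versus compound-free control; erythromycin A plate run as reference.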

[26] = system: Staphylococcus aureus CMX 503A; assay: as above; format: cell-based; conditions: Staphylococcus aureus, CMX503A, 24 h, BHI agar, 20-24 h, read-out: MIC
In short: as §2

[27] = system: Staphylococcus aureus CMX 553; assay: as above; format: cell-based; conditions: Staphylococcus aureus, CMX553, 24 h, BHI agar, 20-24 h, read-out: MIC
In short: as §2

[28] = system: Streptococcus pneumoniae (ATCC 6303); assay: In-vivo acute mouse protection assay; set-up: species or system Streptococcus pneumoniae; female Swiss albino mice; conditions: dosed 1 and 5 h post-infection, observed 7 days
Method: (§3) An acute mouse protection test was conducted on ten mice with each of three concentrations of selected compounds of the invention. Each concentration was a four-fold dilution of the previous concentration. The initial concentration will vary with the microorganism with which the mouse is challenged.
(§4) The acute mouse protection test was conducted on female, Swiss albino mice, 18-20 grams in weight. […] To check the potency of the inoculum, a titration of the indicated test organism was carried out in control animals. The titration determines the LD50 for a particular microorganism. The treatment groups of animals were dosed orally, by gavage, or subcutaneously with the test compounds at 1 and 5 hours post-infection and observed for 7 days. The ED50 were calculated using the mortality data collected.

[29] = system: Staphylococcus aureus (NCTC 10649); assay: In-vivo acute mouse protection assay; set-up: species or system Staphylococcus aureus; female Swiss albino mice; conditions: Staphylococcus aureus, NCTC10649, sc, 168 h; subcutaneous; dosed 1 and 5 h post-infection, observed 7 days; read-out: ED50
Method: as §3, §4

[30] = system: Streptococcus pyogenes C-203; assay: In-vivo acute mouse protection assay; set-up: species or system Streptococcus pyogenes; female Swiss albino mice; conditions: dosed 1 and 5 h post-infection, observed 7 days
Method: as §3, §4

[31] = system: Staphylococcus aureus 642A; assay: In-vitro antimicrobial activity primary screen (agar dilution MIC); format: cell-based; conditions: BHI agar, 20-24 h, read-out: MIC
In short: as §1

[32] = system: Staphylococcus aureus NCTC 10649; assay: as above; format: cell-based; conditions: NCTC10649, BHI agar, 20-24 h, read-out: MIC
In short: as §1

[33] = system: Klebsiella pneumoniae ATCC 8045; assay: as above; format: cell-based; conditions: ATCC8045; Klebsiella pneumoniae ATCC 8045; BHI agar, 20-24 h; read-out: MIC
In short: as §1

[34] = Pharmacokinetic evaluation in dogs after a 10 mg/kg dose; conditions: dog, plasma; for half-life: t1/2 (biological half life); for bioavailability: % ABS (percent absorbance), from AUC (absolute bioavailability); for Cmax: Cmax (maximum concentration in blood); for Tmax: Tmax (time to achieve maximum concentration in blood)
[35] = po, oral 10 mg/kg, HPLC (parent drug)
[36] = po, oral 10 mg/kg, microbiological assay

Compound	MIC [2]	MIC [3]	MIC [5]	MIC [7]	MIC [8]	MIC [9]	MIC [10]	MIC [12]	MIC [13]	MIC [14]	MIC [15]	MIC [16]	MIC [17]	MIC [18]	MIC [19]	MIC [20]	MIC [22]	MIC [23]	MIC [24]	MIC [27]	other results
CC[C@H]1OC(=O)[C@H](C)[C@@H](O[C@H]2C[C@@](C)(OC)[C@@H](N)[C@H](C)O2)[C@H](C)[C@@H](O[C@@H]2O[C@H](C)C[C@H](N(C)C)[C@H]2O)[C@](C)(O)C[C@@H](C)[C@@H]2O[C@@]1(C)[C@@H](O)[C@H]2C [Example 15, (4"S,9S,11S)-4"-Amino-9-deoxo-4",12-dideoxy-9,12-epoxyerythromycin A]	100 µg/mL (≈ 139 µM)	3.1 µg/mL (≈ 4.32 µM)	50 µg/mL (≈ 69.7 µM)	0.78 µg/mL (≈ 1.09 µM)	> 100 µg/mL	0.1 µg/mL (≈ 0.139 µM)	0.39 µg/mL (≈ 0.544 µM)	0.01 µg/mL (≈ 0.0139 µM)	0.02 µg/mL (≈ 0.0279 µM)	6.2 µg/mL (≈ 8.65 µM)	6.2 µg/mL (≈ 8.65 µM)	> 100 µg/mL	> 100 µg/mL	0.39 µg/mL (≈ 0.544 µM)	0.2 µg/mL (≈ 0.279 µM)	0.39 µg/mL (≈ 0.544 µM)	0.01 µg/mL (≈ 0.0139 µM)	0.02 µg/mL (≈ 0.0279 µM)	0.05 µg/mL (≈ 0.0697 µM)	0.2 µg/mL (≈ 0.279 µM)	MIC ([1]; Escherichia coli, 24 h): 12.5 µg/mL (≈ 17.4 µM); MIC ([4]; SPCMX669, Acinetobacter SP CMX 669, BHI agar, 20-24 h, read-out: MIC): 6.2 µg/mL (≈ 8.65 µM); MIC ([6]; ATCC13048, 24 h): 50 µg/mL (≈ 69.7 µM); MIC ([11]; Enterococcus faecium, ATCC8043, 24 h): 0.1 µg/mL (≈ 0.139 µM); MIC ([21]; Staphylococcus aureus A5177, BHI agar, 20-24 h, read-out: MIC): 1.56 µg/mL (≈ 2.18 µM); MIC [25]: 0.39 µg/mL (≈ 0.544 µM); MIC [26]: 0.39 µg/mL (≈ 0.544 µM); ED50 ([28]; ATCC6303, 168 h, oral, read-out: ED50): 37.3 mg/kg; ED50 ([28]; ATCC6303, sc, 168 h, subcutaneous): 4 mg/kg; ED50 [29]: 30.1 mg/kg; ED50 ([30]; C203, 168 h, oral): 47.9 mg/kg; ED50 ([30]; C203, sc, 168 h, subcutaneous): 5 mg/kg
CC[C@H]1OC(=O)[C@H](C)[C@@H](O[C@H]2C[C@@](C)(OC)[C@@H](N)[C@H](C)O2)[C@H](C)[C@@H](O[C@@H]2O[C@H](C)C[C@H](N(C)C)[C@H]2O)[C@](C)(O)C[C@@H](C)[C@@H]2O[C@@]1(C)[C@@H](N)[C@H]2C [Example 22, (4"S,9S,11S)-4",11-Diamino-9-deoxo-4",11,12-trideoxy-9,12-epoxyerythromycinA]	100 µg/mL (≈ 140 µM)	0.78 µg/mL (≈ 1.09 µM)	12.5 µg/mL (≈ 17.5 µM)	0.39 µg/mL (≈ 0.545 µM)	> 100 µg/mL	0.1 µg/mL (≈ 0.14 µM)	0.1 µg/mL (≈ 0.14 µM)	0.01 µg/mL (≈ 0.014 µM)	0.01 µg/mL (≈ 0.014 µM)	3.1 µg/mL (≈ 4.33 µM)	1.56 µg/mL (≈ 2.18 µM)	> 100 µg/mL	> 100 µg/mL	0.2 µg/mL (≈ 0.279 µM)	0.2 µg/mL (≈ 0.279 µM)	0.2 µg/mL (≈ 0.279 µM)	≤ 0.005 µg/mL	0.01 µg/mL (≈ 0.014 µM)	0.05 µg/mL (≈ 0.0698 µM)	0.2 µg/mL (≈ 0.279 µM)	MIC ([1]; Escherichia coli JUHL, BHI agar, 20-24 h, read-out: MIC): 1.56 µg/mL (≈ 2.18 µM); MIC ([4]; Acinetobacter, SPCMX669, 24 h): 0.39 µg/mL (≈ 0.545 µM); MIC [31]: 0.2 µg/mL (≈ 0.279 µM); MIC ([6]; ATCC13048, read-out: MIC): 6.2 µg/mL (≈ 8.66 µM); MIC ([11]; ATCC8043, Enterococcus faecium ATCC 8043, BHI agar, 20-24 h, read-out: MIC): 0.05 µg/mL (≈ 0.0698 µM); MIC [32]: 0.2 µg/mL (≈ 0.279 µM); MIC ([21]; Staphylococcus aureus, A5177, 24 h): 1.56 µg/mL (≈ 2.18 µM); MIC [33]: 1.56 µg/mL (≈ 2.18 µM); half-life ([34]; iv, IV 10 mg/kg, HPLC (parent drug)): 9.3 h; half-life ([34]; iv, IV 10 mg/kg, microbiological assay): 10.2 h; bioavailability [34, 35]: 43%; bioavailability [34, 36]: 57%; Cmax [34, 35]: 3200 ng/mL; Cmax [34, 36]: 3500 ng/mL; Tmax [34, 35]: 0.5 h; Tmax [34, 36]: 0.6 h; half-life [34, 35]: 11.5 h; half-life [34, 36]: 9.8 h
